Columns and labels:
[1] = Antimicrobial activity against Salmonella pullorum C7913 assessed as bacterial killing measured after 16 hrs incubation; type: functional, Salmonella enterica subsp. enterica serovar Pullorum; settings: Salmonella enterica
Escherichia coli [2] = experiment: Antimicrobial activity against Escherichia coli 25922 assessed as absence bacterial growth measured after 18 to 24 hrs incubation by NCCLS method; type: functional; settings: time 18-24 hrs
Escherichia coli [3] = experiment: Antimicrobial activity against Escherichia coli 25922 assessed as absence bacterial growth measured after 18 to 24 hrs incubation in presence of NaCl by NCCLS method; type: functional; settings: time 18-24 hrs
Enterococcus faecalis [4] = experiment: Antimicrobial activity against Enterococcus faecalis 29212 assessed as absence bacterial growth measured after 18 to 24 hrs incubation by NCCLS method; type: functional; settings: time 18-24 hrs
Escherichia coli [5] = experiment: Antimicrobial activity against Escherichia coli 25922 assessed as absence bacterial growth measured after 18 to 24 hrs incubation in presence of MgCl2 by NCCLS method; type: functional; settings: time 18-24 hrs
Staphylococcus aureus [6] = experiment: Antimicrobial activity against Staphylococcus aureus 29213 assessed as absence bacterial growth measured after 18 to 24 hrs incubation by NCCLS m; type: functional; settings: time 18-24 hrs
Salmonella typhimurium [7] = experiment: Antimicrobial activity against Salmonella typhimurium C7731 assessed as bacterial killing measured after 16 hrs incubation; type: functional, Salmonella enterica subsp. enterica serovar Typhimurium; settings: Salmonella enterica
Acinetobacter baumannii [8] = experiment: Antimicrobial activity against Acinetobacter baumannii 1.6769 assessed as bacterial killing measured after 16 hrs incubation; type: functional
Staphylococcus aureus [9] = experiment: Antimicrobial activity against Staphylococcus aureus 29213 assessed as absence bacterial growth measured after 18 to 24 hrs incubation by NCCLS method; type: functional; settings: time 18-24 hrs
Staphylococcus aureus [10] = experiment: Antimicrobial activity against Methicillin-resistant Staphylococcus aureus 43300 assessed as absence bacterial growth measured after 18 to 24 hrs incubation by NCCLS method; type: functional; settings: time 18-24 hrs
Listeria monocytogenes [11] = experiment: Antimicrobial activity against Listeria monocytogenes 1.10753 assessed as bacterial killing measured after 16 hrs incubation; type: functional
Escherichia coli [12] = experiment: Antimicrobial activity against Escherichia coli 25922 assessed as absence bacterial growth measured after 18 to 24 hrs incubation in presence of 50% serum by NCCLS method; type: functional; settings: time 18-24 hrs
Escherichia coli [13] = experiment: Antimicrobial activity against Escherichia coli 25922 assessed as absence bacterial growth measured after 18 to 24 hrs incubation in presence of FeCl3 by NCCLS method; type: functional; settings: time 18-24 hrs
Salmonella typhimurium [14] = experiment: Antimicrobial activity against Salmonella typhimurium 14028 assessed as bacterial killing measured after 16 hrs incubation; type: functional, Salmonella enterica subsp. enterica serovar Typhimurium; settings: Salmonella enterica
Bacillus cereus [15] = experiment: Antimicrobial activity against Bacillus cereus 1.932 assessed as bacterial killing measured after 16 hrs incubation; type: functional
Pseudomonas aeruginosa [16] = experiment: Antimicrobial activity against Pseudomonas aeruginosa 27853 assessed as absence bacterial growth measured after 18 to 24 hrs incubation by NCCLS method; type: functional; settings: time 18-24 hrs
Escherichia coli [17] = experiment: Antimicrobial activity against Escherichia coli K88 assessed as bacterial killing measured after 16 hrs incubation; type: functional
[18] = test system: Staphylococcus epidermidis; experiment: Antimicrobial activity against Staphylococcus epidermidis 12228 assessed as bacterial killing measured after 16 hrs incubation; type: functional
Escherichia coli [19] = experiment: Antimicrobial activity against Escherichia coli K88 assessed as absence bacterial growth measured after 18 to 24 hrs incubation by NCCLS method; type: functional; settings: time 18-24 hrs
[20] = Cytotoxicity against mouse RAW264.7 cells assessed as cell survival rate measured after 8 hrs by MTT assay; type: toxicity, cell-based
Bacillus cereus [21] = experiment: Antimicrobial activity against Bacillus cereus 1.932 assessed as absence bacterial growth measured after 18 to 24 hrs incubation by NCCLS method; type: functional; settings: time 18-24 hrs
Enterococcus faecalis [22] = experiment: Antimicrobial activity against Enterococcus faecalis 29212 assessed as bacterial killing measured after 16 hrs incubation; type: functional
Staphylococcus aureus [23] = experiment: Antimicrobial activity against Staphylococcus aureus 25923 assessed as bacterial killing measured after 16 hrs incubation; type: functional
Listeria monocytogenes [24] = experiment: Antimicrobial activity against Listeria monocytogenes 1.10753 assessed as absence bacterial growth measured after 18 to 24 hrs incubation by NCCLS method; type: functional; settings: time 18-24 hrs
Escherichia coli [25] = experiment: Antimicrobial activity against Escherichia coli 25922 assessed as absence bacterial growth measured after 18 to 24 hrs incubation in presence of ZnCl2 by NCCLS method; type: functional; settings: time 18-24 hrs
Staphylococcus aureus [26] = experiment: Antimicrobial activity against Methicillin-resistant Staphylococcus aureus 43300 assessed as bacterial killing measured after 16 hrs incubation; type: functional
Escherichia coli [27] = experiment: Antimicrobial activity against Escherichia coli 25922 assessed as absence bacterial growth measured after 18 to 24 hrs incubation in presence of NH4Cl by NCCLS method; type: functional; settings: time 18-24 hrs
Staphylococcus aureus [28] = experiment: Antimicrobial activity against Staphylococcus aureus 29213 assessed as bacterial killing measured after 16 hrs incubation; type: functional
Pseudomonas aeruginosa [29] = experiment: Antimicrobial activity against Pseudomonas aeruginosa 27853 assessed as bacterial killing measured after 16 hrs incubation; type: functional
Escherichia coli [30] = experiment: Antimicrobial activity against Escherichia coli 25922 assessed as absence bacterial growth measured after 18 to 24 hrs incubation in presence of 25% serum by NCCLS method; type: functional; settings: time 18-24 hrs
Escherichia coli [31] = experiment: Antimicrobial activity against Escherichia coli 25922 assessed as absence bacterial growth measured after 18 to 24 hrs incubation in presence of 12.5% serum by NCCLS method; type: functional; settings: time 18-24 hrs
Acinetobacter baumannii [32] = experiment: Antimicrobial activity against Acinetobacter baumannii 1.6769 assessed as absence bacterial growth measured after 18 to 24 hrs incubation by NCCLS method; type: functional; settings: time 18-24 hrs
Escherichia coli [33] = experiment: Antimicrobial activity against Escherichia coli 25922 assessed as bacterial killing measured after 16 hrs incubation; type: functional
Salmonella typhimurium [34] = experiment: Antimicrobial activity against Salmonella typhimurium 14028 assessed as absence bacterial growth measured after 18 to 24 hrs incubation by NCCLS method; type: functional, Salmonella enterica subsp. enterica serovar Typhimurium; settings: Salmonella enterica, time 18-24 hrs
[35] = Cytotoxicity against porcine IPEC-J2 cells assessed as cell survival rate measured after 8 hrs by MTT assay; type: toxicity, cell-based, Sus scrofa; settings: pig
[36] = test system: Staphylococcus epidermidis; experiment: Antimicrobial activity against Staphylococcus epidermidis 12228 assessed as absence bacterial growth measured after 18 to 24 hrs incubation by NCCLS method; type: functional; settings: time 18-24 hrs
[37] = Antimicrobial activity against Salmonella pullorum C7913 assessed as absence bacterial growth measured after 18 to 24 hrs incubation by NCCLS method; type: functional, Salmonella enterica subsp. enterica serovar Pullorum; settings: Salmonella enterica, time 18-24 hrs
[38] = Cytotoxicity against human HEK-293T cells assessed as cell survival rate measured after 8 hrs by MTT assay; type: toxicity, cell-based
Erythrocyte = experiment: Hemolytic activity in human RBC at effective concentration measured after 1 hr by microplate reader analysis; type: toxicity, cell-based
Escherichia coli [39] = experiment: Antimicrobial activity against Escherichia coli 25922 assessed as absence bacterial growth measured after 18 to 24 hrs incubation in presence of KCl by NCCLS method; type: functional; settings: time 18-24 hrs
Salmonella typhimurium [40] = experiment: Antimicrobial activity against Salmonella typhimurium C7731 assessed as absence bacterial growth measured after 18 to 24 hrs incubation by NCCLS method; type: functional, Salmonella enterica subsp. enterica serovar Typhimurium; settings: Salmonella enterica, time 18-24 hrs
[41] = Hemolytic activity in human RBC at effective concentration at 128 uM measured after 1 hr by microplate reader relative to control; type: toxicity, cell-based, Erythrocyte; settings: human red blood cells (erythrocytes), read-out: Activity

Q: With H-GKLWLKGWKLWLKGGKLWLKG-NH2 as the substance, how does the MBC [1] read?
A: 1 µM

Q: What about the MIC (Escherichia coli [2]) of the same substance?
A: 1 µM

Q: And the MIC (Escherichia coli [3])?
A: 2 µM

Q: What about the MIC (Enterococcus faecalis [4]) of the same substance?
A: 2 µM

Q: And the MIC (Escherichia coli [5])?
A: 2 µM

Q: And the MIC (Staphylococcus aureus [6])?
A: 4 µM

Q: And the MBC (Salmonella typhimurium [7])?
A: 8 µM

Q: And the MBC (Acinetobacter baumannii [8])?
A: 2 µM

Q: And the MIC (Staphylococcus aureus [9])?
A: 2 µM

Q: What about the MIC (Staphylococcus aureus [10]) of the same substance?
A: 2 µM

Q: And the MBC (Listeria monocytogenes [11])?
A: > 32 µM

Q: What about the MIC (Escherichia coli [12]) of the same substance?
A: 32 µM

Q: What about the MIC (Escherichia coli [13]) of the same substance?
A: 1 µM

Q: And the MBC (Salmonella typhimurium [14])?
A: 4 µM

Q: What about the MBC (Bacillus cereus [15]) of the same substance?
A: 4 µM

Q: What about the MIC (Pseudomonas aeruginosa [16]) of the same substance?
A: 2 µM

Q: And the MBC (Escherichia coli [17])?
A: 1 µM

Q: And the MBC [18]?
A: 4 µM

Q: What about the MIC (Escherichia coli [19]) of the same substance?
A: 1 µM

Q: And the IC50 at 8 h [20]?
A: 53.5 µM

Q: And the MIC (Bacillus cereus [21])?
A: 1 µM

Q: What about the MBC (Enterococcus faecalis [22]) of the same substance?
A: 4 µM

Q: What about the MBC (Staphylococcus aureus [23]) of the same substance?
A: 8 µM

Q: What about the MIC (Listeria monocytogenes [24]) of the same substance?
A: > 32 µM

Q: What about the MIC (Escherichia coli [25]) of the same substance?
A: 1 µM

Q: What about the MBC (Staphylococcus aureus [26]) of the same substance?
A: 4 µM

Q: What about the MIC (Escherichia coli [27]) of the same substance?
A: 2 µM

Q: And the MBC (Staphylococcus aureus [28])?
A: 4 µM

Q: What about the MBC (Pseudomonas aeruginosa [29]) of the same substance?
A: 4 µM

Q: And the MIC (Escherichia coli [30])?
A: 32 µM

Q: And the MIC (Escherichia coli [31])?
A: 16 µM

Q: What about the MIC (Acinetobacter baumannii [32]) of the same substance?
A: 2 µM

Q: What about the MBC (Escherichia coli [33]) of the same substance?
A: 1 µM

Q: What about the MIC (Salmonella typhimurium [34]) of the same substance?
A: 2 µM

Q: What about the IC50 at 8 h [35] of the same substance?
A: 3.9 µM

Q: And the MIC [36]?
A: 2 µM

Q: And the MIC [37]?
A: 1 µM

Q: And the IC50 at 8 h [38]?
A: 61.9 µM

Q: And the HC10 (Erythrocyte)?
A: 32 µM

Q: And the MIC (Escherichia coli [39])?
A: 1 µM

Q: What about the MIC (Salmonella typhimurium [40]) of the same substance?
A: 2 µM

Q: With H-IKLWLKGGKLWLKGGKLWLKG-NH2 as the substance, how does the MBC [1] read?
A: 2 µM

Q: And the MIC (Escherichia coli [2])?
A: 4 µM

Q: And the MIC (Escherichia coli [3])?
A: > 32 µM

Q: And the MIC (Enterococcus faecalis [4])?
A: > 32 µM

Q: What about the MIC (Escherichia coli [5]) of the same substance?
A: > 32 µM

Q: And the MIC (Staphylococcus aureus [6])?
A: > 32 µM

Q: What about the MBC (Salmonella typhimurium [7]) of the same substance?
A: 32 µM

Q: And the MBC (Acinetobacter baumannii [8])?
A: 8 µM

Q: What about the MIC (Staphylococcus aureus [9]) of the same substance?
A: > 32 µM

Q: And the MIC (Staphylococcus aureus [10])?
A: > 32 µM

Q: And the MBC (Listeria monocytogenes [11])?
A: > 32 µM

Q: What about the MIC (Escherichia coli [12]) of the same substance?
A: > 32 µM

Q: And the MIC (Escherichia coli [13])?
A: 16 µM

Q: What about the MBC (Salmonella typhimurium [14]) of the same substance?
A: 8 µM

Q: And the MBC (Bacillus cereus [15])?
A: > 32 µM

Q: And the MIC (Pseudomonas aeruginosa [16])?
A: 8 µM

Q: What about the MBC (Escherichia coli [17]) of the same substance?
A: 2 µM

Q: What about the MBC [18] of the same substance?
A: > 32 µM

Q: What about the MIC (Escherichia coli [19]) of the same substance?
A: 2 µM

Q: And the IC50 at 8 h [20]?
A: > 64 µM

Q: And the MIC (Bacillus cereus [21])?
A: > 32 µM

Q: And the MBC (Enterococcus faecalis [22])?
A: > 32 µM

Q: What about the MBC (Staphylococcus aureus [23]) of the same substance?
A: > 32 µM

Q: What about the MIC (Listeria monocytogenes [24]) of the same substance?
A: > 32 µM

Q: And the MIC (Escherichia coli [25])?
A: 16 µM

Q: And the MBC (Staphylococcus aureus [26])?
A: > 32 µM

Q: And the MIC (Escherichia coli [27])?
A: 8 µM

Q: And the MBC (Staphylococcus aureus [28])?
A: > 32 µM

Q: What about the MBC (Pseudomonas aeruginosa [29]) of the same substance?
A: 8 µM

Q: And the MIC (Escherichia coli [30])?
A: > 32 µM

Q: What about the MIC (Escherichia coli [31]) of the same substance?
A: > 32 µM

Q: What about the MIC (Acinetobacter baumannii [32]) of the same substance?
A: 8 µM

Q: And the MBC (Escherichia coli [33])?
A: 8 µM

Q: And the MIC (Salmonella typhimurium [34])?
A: 8 µM

Q: What about the IC50 at 8 h [35] of the same substance?
A: 31.4 µM

Q: What about the MIC [36] of the same substance?
A: > 32 µM

Q: What about the hemolysis at 1 h, 128 µM [41] of the same substance?
A: < 10%

Q: And the MIC [37]?
A: 2 µM

Q: What about the IC50 at 8 h [38] of the same substance?
A: > 64 µM

Q: What about the HC10 (Erythrocyte) of the same substance?
A: > 128 µM

Q: What about the MIC (Escherichia coli [39]) of the same substance?
A: 4 µM

Q: What about the MIC (Salmonella typhimurium [40]) of the same substance?
A: 8 µM

From ChEMBL document CHEMBL5518215, “Unlocking Antibacterial Potential: Key-Site-Based Regulation of Antibacterial Spectrum of Peptides” (J Med Chem, 2024)
